Measurements published in publication PMC7010356, “The thermodynamic profile and molecular interactions of a C(9)-cytisine derivative-binding acetylcholine-binding protein from Aplysia californica” (Acta Crystallographica. Section F, Structural Biology …, 2020).

Molecular target: T1, acetylcholine-binding protein (AcAChBP) (Aplysia californica, UniProt Q8WSF8)
T1 construct: recombinant AcAChBP with a C-terminal Tobacco etch virus cleavage site and His6 tag; homopentamer
T1 sequence (Q8WSF8 20-236): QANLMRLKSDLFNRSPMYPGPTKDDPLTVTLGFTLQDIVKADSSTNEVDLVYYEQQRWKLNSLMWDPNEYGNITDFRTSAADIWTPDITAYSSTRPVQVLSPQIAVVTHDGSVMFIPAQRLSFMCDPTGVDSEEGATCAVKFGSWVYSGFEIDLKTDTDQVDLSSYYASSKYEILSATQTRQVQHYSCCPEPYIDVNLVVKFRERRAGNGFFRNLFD
Test: ITC and […] Å crystal structure

Compound: O=c1c(CCCO)ccc2n1C[C@@H]1CNC[C@H]2C1 [compound 4, (1R,5S)-9-(3-hydroxypropyl)-1,2,3,4,5,6-hexahydro-1,5-methano-8H-pyrido[1,2a][1,5]diazocin-8-one]
- Kd: 53.3 µM
